The results in this text go back to PMC8291583, “Design, synthesis, and evaluation of 3,7-substituted coumarin derivatives as multifunctional Alzheimer’s disease agents” (Journal of Enzyme Inhibition and Medicinal Chemistry, 2021).

SMILES strings stand for the structures. Where “and” joins values, the source holds several entries; their conditions need not be identical. Equal entries are not always repeated. Where two headings read alike, the source gives them in different places.

Data set [1] deals with Electrophorus electricus AChE (Electrophorus electricus, UniProt O42275). The data set is described as follows: biochemical. Particulars: for IC50: 25 °C, pH 8. As to the method:
Cholinesterase activity is determined using a modified colorimetric method first described by Ellman[40]. […] The stock was then further diluted by factors of ten to produce solutions of 1 mM, 100 µM, 10 µM, 1 µM, and 0.1 µM which corresponds to concentrations of 100 µM, 10 µM, 1 µM, 0.1 µM, and 0.01 µM in the final reaction mixture. The test concentrations were stored in the refrigerator until the day of the assay. Trisma HCl buffer (50 mM, adjusted to pH 8 with 2 N NaOH) was prepared as the buffer and used to prepare enzyme stock solution (22 U/ml for Electrophorus electricus AChE and 12 U/ml BuChE from equine serum), 15 mM acetylthiocholine iodide, 15 mM S-butyrylthiocholine iodide and 1.5 mM DTNB (Ellman’s reagent). The enzyme stock solution was stabilised with 1% bovine serum albumin and stored in aliquots at −80 °C. A clear, flat bottom 96 well plate was used to perform the experiments with each concentration performed in triplicate. Prior to the assay the background absorbance for each compound at the different test concentrations was measured and accounted for when reading the final absorbance. […] Following this, 30 µl of the substrate was added to each well simultaneously using a multi pipette. […] A one-sample t-test was performed on the data to test for statistical significance.

Data set [2] concerns SH-SY5Y neuroblastoma cells. The data set is described as follows: MTT cytotoxicity assay. It counts as cell-based, human. The following applies: 48 h. As to the method:
The human neuroblastoma SH-SY5Y cells were generously donated by collaborators from the Blackburn Laboratory, University of Cape Town. Cells were cultured in monolayer in Dulbecco’s Modified Eagle Medium (DMEM, Gibco, Life Technologies Corporation UK), supplemented with 10% foetal bovine serum (FBS, Gibco, Life Technologies Corporation, Paisley, UK), 100 U/ml penicillin, and 100 µg/ml streptomycin (Lonza Group Ltd., Verviers Belgium). Cultures were incubated at 37 °C in a humidified atmosphere with 5% CO2. The growth medium was replaced every 3 days and cells were sub-cultured when they attained 70 to 80% confluency using a solution of 0.25% trypsin EDTA (Lonza Group Ltd., Verviers, Belgium).
SH-SY5Y cells were plated in growth medium in the flat bottom 96 well plates at a density of approximately 7500 cells/well. The cells were allowed to adhere to the plate surface for 24 h and following this their media were replenished with fresh media containing the test compounds at 10 µM, 50 µM and 100 µM concentrations dissolved in DMSO. Vehicle control cells were treated with DMSO, at a concentration similar to that of the highest concentration of the test compounds. Following an incubation period of 48 h, 10 µl of MTT solution (5 mg/ml) was added to each well. This was further incubated for 4 h and the formazan formed was solubilised with 100 µl of DMSO. The plates were read using a BMG Labtech Omega® POLARStar plate reader spectrophotometer (Ortenberg, Germany) to determine the absorbance recorded at a wavelength of 570 nm. The percentage cell viability was calculated relative to the vehicle control using the following formula: Cellviability%=(Absorbanceoftreatedwell/Absorbanceofuntreatedwell)×100 [drawing 1]

In another data set the target is recombinant human MAO-B (Homo sapiens, UniProt P27338). The format is biochemical. Particulars: preincubation 0-60 min, inhibitor about twofold IC50.
Data set [3] has as its system Aβ 25–35 treated SH-SY5Y cells. The data set is described as follows: Amyloid-beta 25–35 induced neurotoxicity (MTT). It counts as cell-based, human. Particulars: 10 µM to 100 µM compound, Aβ 25–35 20 µM, 24 h. As to the method:
Human neuroblastoma cells (SH-SY5Y) were grown in a culture medium (DMEM/F-12) and supplemented with 10% foetal bovine serum. Prophylactically, 1% v/v of penicillin/streptomycin was added to the medium. Cells were maintained by incubation at 37 °C with 5% carbon dioxide. All experiments were performed by seeding the cells into 24-well plates. Once confluent, the cells were then pre-treated with compounds 6 and 7 (10 µM) for 1 h, followed by Aβ 25–35 addition (20 µM) and incubated for 24 h. The untreated control cells were treated with DMEM which contained DMSO and were incubated in the same manner as the treated cells. […] The level of significance was analysed using One-way ANOVA statistical analysis and expressed using the p-value.
The accumulation of extracellular Aβ plaques has been marked as one of the pathological hallmarks of neurotoxicity associated with AD[59–61] and coumarin moieties have previously shown to inhibit Aβ plaque formation and Aβ induced neurotoxicity[62]^,[63]. To further explore the neuroprotective potential of the propargylamine-containing coumarin derivatives 6 and 7, their ability to curb neurotoxicity induced by the amyloid-β (Aβ) protein was thus assessed according to the method described in the experimental section. […]

Where [4] appears, read: Ellman method, read-out: AChE IC50.

Sequence of Electrophorus electricus AChE (O42275 24-633): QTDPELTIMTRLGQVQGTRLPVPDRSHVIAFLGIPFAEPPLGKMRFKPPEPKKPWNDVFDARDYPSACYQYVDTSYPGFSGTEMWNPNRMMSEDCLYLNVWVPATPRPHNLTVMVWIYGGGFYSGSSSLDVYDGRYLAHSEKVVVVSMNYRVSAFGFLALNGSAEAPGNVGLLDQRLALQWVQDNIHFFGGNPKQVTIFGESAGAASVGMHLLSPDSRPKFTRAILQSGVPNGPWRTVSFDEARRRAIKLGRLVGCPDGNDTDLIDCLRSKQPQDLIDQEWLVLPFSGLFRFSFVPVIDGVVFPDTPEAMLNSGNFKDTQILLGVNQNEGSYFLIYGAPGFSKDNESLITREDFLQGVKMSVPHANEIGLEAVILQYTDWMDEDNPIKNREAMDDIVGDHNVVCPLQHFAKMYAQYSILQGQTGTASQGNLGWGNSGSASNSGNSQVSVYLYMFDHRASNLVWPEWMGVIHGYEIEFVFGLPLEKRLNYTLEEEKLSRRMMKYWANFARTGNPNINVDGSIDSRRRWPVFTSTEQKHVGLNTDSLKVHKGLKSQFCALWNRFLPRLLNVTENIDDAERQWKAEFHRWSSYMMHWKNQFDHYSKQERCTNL
Sequence of recombinant human MAO-B (P27338 whole entry): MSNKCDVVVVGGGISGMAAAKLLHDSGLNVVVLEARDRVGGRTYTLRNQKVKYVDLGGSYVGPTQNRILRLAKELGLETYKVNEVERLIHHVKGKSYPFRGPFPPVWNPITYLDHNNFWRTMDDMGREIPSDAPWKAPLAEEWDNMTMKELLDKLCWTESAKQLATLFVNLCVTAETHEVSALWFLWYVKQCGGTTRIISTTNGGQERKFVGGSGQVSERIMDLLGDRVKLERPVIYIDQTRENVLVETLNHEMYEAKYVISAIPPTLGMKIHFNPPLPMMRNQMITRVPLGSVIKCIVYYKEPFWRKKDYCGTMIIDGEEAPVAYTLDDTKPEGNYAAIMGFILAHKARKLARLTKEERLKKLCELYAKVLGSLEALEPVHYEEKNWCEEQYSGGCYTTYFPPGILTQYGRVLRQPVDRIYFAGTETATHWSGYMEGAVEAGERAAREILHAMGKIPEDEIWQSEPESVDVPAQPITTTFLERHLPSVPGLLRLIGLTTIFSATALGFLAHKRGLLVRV
Procedure for recombinant human MAO-B: The concentration of inhibitor in these incubations was approximately twofold the measured IC50 value for the inhibition of the MAO-B enzyme. Potassium phosphate buffer (100 mM, pH 7.4, made isotonic with NaCl) was used as the incubation medium. A final concentration of 30 hx00B5;M kynuramine for MAO-B was then added to the preincubated enzyme preparations and the resulting 250 µl reactions were incubated at 37 °C for 15 min. The reactions were terminated with the addition of 200 µl NaOH (2 N) and a volume of 600 µl distilled water was added to each reaction. The fluorescence of the MAO-B generated 4-hydroxyquinoline in the supernatant fractions were measured using a fluorescent microplate reader at an excitation wavelength of 310 nm and an emission wavelength of 400 nm. Time-dependent graphs were plotted against the relative fluorescent unit readings (RFU).
To determine the binding mode of the studied compounds on MAO-B, the time dependency of enzyme inhibition was measured. If the compounds form a covalent or irreversible adduct with the enzyme, a time-dependent reduction of enzyme activity would be expected. […] For this purpose, the concentrations of the test compounds chosen were approximately twofold the measured IC50 values for the inhibition of the respective enzymes.

Consider `O=c1oc2cc(OCCc3ccccc3)ccc2cc1CBr` [Compound 4, 3-(bromomethyl)-7-(2-phenylethoxy)-2H-1-benzopyran-2-one], for which, in data set [1] (setting [4]), the IC50 – broadly, the point on the concentration scale where inhibition reaches its midpoint – was greater than 100 µM. The “cell survival (MTT)” value in data set [2] (50 µM) was 65%; in data set [2] (100 µM), 7%.

Regarding `CCN(CC)C(=O)Oc1ccc2cc(CBr)c(=O)oc2c1` [Compound 5, 3-(bromomethyl)-2-oxo-2H-1-benzopyran-7-yl-diethylcarbamate], in data set [1] (setting [4]), the IC50 was ~108 µM and 108 µM. In addition, in data set [1] (at 100 µM, read-out: AChE enzyme inhibition), the inhibition (in general, the change of the read-out against control, counted positive when it falls) at 100 µM worked out at 49%. The “cell survival (MTT)” value in data set [2] (50 µM) and in data set [2] (100 µM) was 0% throughout.

On to `C#CCNCc1cc2ccc(OCCc3ccccc3)cc2oc1=O` [Compound 6, 7-(2-phenylethoxy)-3-{[(prop-2-yn-1-yl)amino]methyl}-2H-1-benzopyran-2-one], for which the IC50 in data set [1] (setting [4]) was greater than 100 µM. For the same compound, the “mode of MAO-B inhibition (time dependency)” value on recombinant human MAO-B is given as “reversible inhibitors of MAO-B”. The “neuroprotection against Aβ 25–35 cytotoxicity” value in data set [3] is recorded as “did not show any significant ability to mitigate the cytotoxic effects”.

Compound `C#CCNCc1cc2ccc(OC(=O)N(CC)CC)cc2oc1=O` [Compound 7, 2-oxo-3-{[(prop-2-yn-1-yl)amino]methyl}-2H-1-benzopyran-7-yl-diethylcarbamate] showed an IC50 in data set [1] (AChE IC50, Ellman method) greater than 100 µM. In addition, the “mode of MAO-B inhibition (time dependency)” value at recombinant human MAO-B is “reversible inhibitors of MAO-B”. The “neuroprotection against Aβ 25–35 cytotoxicity” value in data set [3] is reported as “did not show any significant ability to mitigate the cytotoxic effects”.
